In US20050197371A1, “Urea derivatives as PDGFR modulators” (Ambit Biosciences Corporation, priority 2003, published 2005) one finds Kd data, which are given here for twelve molecules.

Where two headings read alike, the source gives them in different places.

One test deals with T1, PDGFRB(DKIN) (PDGFR-β) (Homo sapiens, UniProt P09619).
T1 construct: PDGFRB(DKIN)
The test is described as follows: Phage-display competitive binding assay, PDGFRB(DKIN). How it is done: The term “ND” represents non-determined values.
(§1) Briefly, T7 phage displaying human PDGFR-β were incubated with an affinity matrix coated with known PDGFR-β inhibitor in the presence of various concentrations of the soluble competitor molecules.

A further test deals with T2, PDGFRB(JMplus) (PDGFR-β) (Homo sapiens, UniProt P09619).
T2 construct: PDGFRB(JMplus)
T2 sequence (P09619 600-962 limits assumed): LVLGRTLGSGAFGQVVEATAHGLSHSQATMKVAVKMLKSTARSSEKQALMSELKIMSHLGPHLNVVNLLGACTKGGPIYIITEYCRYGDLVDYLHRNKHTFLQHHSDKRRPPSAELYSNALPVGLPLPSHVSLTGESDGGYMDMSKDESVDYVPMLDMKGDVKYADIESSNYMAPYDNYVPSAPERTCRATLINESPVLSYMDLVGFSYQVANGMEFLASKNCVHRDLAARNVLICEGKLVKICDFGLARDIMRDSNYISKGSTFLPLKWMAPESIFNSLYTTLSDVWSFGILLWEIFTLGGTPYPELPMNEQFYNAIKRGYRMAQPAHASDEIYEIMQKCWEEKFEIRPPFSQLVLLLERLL
In words: Phage-display competitive binding assay, PDGFRB(JMplus). Here is the method:
as §1

Test [1] deals with T3, PDGFRB(JMminus) (PDGFR-β) (Homo sapiens, UniProt P09619).
T3 construct: PDGFRB(JMminus)
T3 sequence (P09619 600-962 limits assumed): as above
The test is described as follows: Phage-display competitive binding assay, PDGFRB(JMminus). How it is done:
as §1

[2] abbreviates: T7 phage displaying human PDGFR-β, DKIN construct; read-out: Binding Assay: PDGFRB(DKIN).

With `CC(C)(C)c1cc(NC(=O)Nc2ccc(NC(=O)c3ncccc3O)cc2)no1` [Compound N134], the Kd on PDGFRB(DKIN) (PDGFR-β) (read-out: Binding Assay: PDGFRB(DKIN); T7 phage displaying human PDGFR-β, DKIN construct) is less than 100 nM; at PDGFRB(JMplus) (PDGFR-β), less than 100 nM; in test [1] it was less than 100 nM. On to `CC(C)(C)c1cc(NC(=O)Nc2ccc(NC(=O)c3ccccn3)cc2)no1` [Compound N188], for which the Kd is less than 100 nM on PDGFRB(DKIN) (PDGFR-β) (setting [2]); less than 100 nM on PDGFRB(JMplus) (PDGFR-β) (T7 phage displaying human PDGFR-β, JMplus construct, read-out: Binding Assay: PDGFRB(JMplus)); less than 100 nM in test [1] (T7 phage displaying human PDGFR-β, JMminus construct, read-out: Binding Assay: PDGFRB(JMminus)). For `Cc1c(NC(=O)Nc2cc(C(C)(C)C)on2)c(=O)n(-c2ccccc2)n1C` [Compound Z45], the Kd on PDGFRB(DKIN) (PDGFR-β) (setting [2]) is greater than 10000 nM. Take `Cn1c(SCC(=O)Nc2ccc(NC(=O)Nc3cc(C(C)(C)C)on3)cc2)nnc1-c1cccn(Cc2ccccc2)c1=O` [Compound Z47]: on PDGFRB(DKIN) (PDGFR-β) (setting [2]), the Kd lay in the range of 100 to 1000 nM. On the same count and under the same terms, next, `O=C(Nc1ccc(Cl)cc1)Nc1ccc(-n2nc(Br)c(Br)c2Br)cc1` [Compound Z49]: less than 100 nM; `C=C/C(=C\C=C\Cl)NC(=O)Nc1ccc(C(=O)OCCOC)cc1` [Compound Z54]: 1000 to 10000 nM. With `NC(=O)c1c(NC(=O)Nc2ccc(Cl)c(Cl)c2)sc2c1CCCC2` [Compound Z56], the Kd on PDGFRB(DKIN) (PDGFR-β) (setting [2]) was greater than 10000 nM. Same read-out and setting: next, `Cc1sc(NC(=O)Nc2ccc(Cl)cc2)c(C(N)=O)c1C` [Compound Z58]: greater than 10000 nM; `O=C(Nc1ccccc1)Nc1ccc(-n2cnc(Cl)c2Cl)cc1` [Compound Z65]: 100 to 1000 nM. Same read-out and setting: next, `COc1ccc(NC(=O)Nc2cc(C(F)(F)F)cc(Cl)n2)cc1` [Compound Z71]: 100 to 1000 nM.

Turning to `O=C(Nc1ccc(Br)cc1)Nc1cc(C(F)(F)F)cc(Cl)n1` [Compound Z72], the Kd on PDGFRB(DKIN) (PDGFR-β) (setting [2]) is greater than 10000 nM. On the same count and under the same terms, next, `O=C(Nc1ccc(Cl)cc1)Nc1cc(C(F)(F)F)cc(Cl)n1` [Compound Z76]: greater than 10000 nM.
